We go through four molecules from ChEMBL document CHEMBL1201862, “PubChem BioAssay data set” (2004).

Structures are written as SMILES.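 Five compound concentrations were applied to cells in 96-well plates for 48 hours; endpoints were derived by simple linear interpolation of the resulting dose-response curve. Abbreviation: GI50, concentration required for 50% inhibition of growth.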 The source made the active and inactive calls. No stated cut-off is given here; in the data, active = GI50 up to about 1.1 µM and inactive = higher.

Test systems include SNB-19; RXF 393; SNB-78; HCT-15; SF-539; MOLT-4; CAKI-1; A498; MCF7; HOP-92; NCI-H23; NCI/ADR-RES; SNB-75; A549; Malme-3M; SK-MEL-28; SK-MEL-5; SK-MEL-2; K562; SK-OV-3.
Assay in all cases: inhibition of tumour cell growth, NCI panel, 48 h

Take `C=CC(=O)C#CC#CC/C=C\CCCCCCC`: the GI50 with SNB-19 was > 15.5 µM (inactive); in the assay with RXF 393, > 11.3 µM (inactive); in the assay on SNB-78, 10.3 µM (inactive); in the assay on HCT-15, more than 20.6 µM; in the assay with SF-539 it was > 20.6 µM (inactive); in the assay with MOLT-4, 4.53 µM (inactive). Moreover, the GI50 is > 20.6 µM (inactive) in the assay on CAKI-1; > 20.6 µM (inactive) in the assay on A498; > 20.6 µM (inactive) with MCF7; > 11.3 µM (inactive) with HOP-92; > 20.6 µM (inactive) in the assay on NCI-H23; > 20.6 µM (inactive) in the assay on NCI/ADR-RES. Also, the GI50 in the assay with SNB-75, in the assay with A549, in the assay on Malme-3M, with SK-MEL-28, with SK-MEL-5 and in the assay with SK-MEL-2 was > 20.6 µM (inactive) in each case. Besides, the results for the GI50 in the assay on K562 and with SK-OV-3 were 6.82 µM (inactive) and > 20.6 µM (inactive), respectively.

For `CCN(CC)c1ccc(/C=C2/C[N+](C)(C)C/C(=C/c3ccc(N(CC)CC)cc3)C2=O)cc1`, the GI50 was 3.19 µM (inactive) in the assay with SNB-19; 2.77 µM (inactive) in the assay on RXF 393; 2.82 µM (inactive) with SNB-78; more than 100 µM in the assay with HCT-15; 2.32 µM (inactive) with SF-539; 1.51 µM (inactive) in the assay on MOLT-4. Further, the GI50 is > 48 µM (inactive) in the assay on CAKI-1; 12.4 µM (inactive) with A498; 1.96 µM (inactive) with MCF7; 0.813 µM (active) with HOP-92; 1.69 µM (inactive) with NCI-H23; > 100 µM (inactive) in the assay with NCI/ADR-RES. The GI50 was 1.62 µM (inactive) in the assay with SNB-75; 4.92 µM (inactive) in the assay with A549; 1.95 µM (inactive) in the assay on Malme-3M; 1.82 µM (inactive) in the assay with SK-MEL-28; 1.67 µM (inactive) in the assay on SK-MEL-5; 1.87 µM (inactive) in the assay with SK-MEL-2. The results for the GI50 in the assay on K562 and with SK-OV-3 were 1.01 µM (active) and 9.29 µM (inactive), respectively.

Turning to `O=S1(=O)CS(=O)(=O)OCCO1`, the GI50 is 31.7 µM (inactive) with SNB-19; 41.6 µM (inactive) with RXF 393; 17.4 µM (inactive) in the assay on SNB-78; 48.6 µM with HCT-15; 11.3 µM (inactive) with SF-539; 10.4 µM (inactive) with MOLT-4. Moreover, the GI50 with CAKI-1 was 38.4 µM (inactive); with A498, 52.5 µM (inactive); in the assay with MCF7 it was 51.8 µM (inactive); in the assay on HOP-92, 31.2 µM (inactive); in the assay on NCI-H23, 37.8 µM (inactive); with NCI/ADR-RES it was 50.9 µM (inactive). For the same molecule, the GI50 was 14 µM (inactive) with SNB-75; 46.1 µM (inactive) in the assay with A549; 55.1 µM (inactive) with Malme-3M; 69 µM (inactive) with SK-MEL-28; 40.1 µM (inactive) in the assay with SK-MEL-5; 50.8 µM (inactive) with SK-MEL-2. For the same molecule, the GI50 is 60 µM (inactive) in the assay with K562 and 28.5 µM (inactive) in the assay with SK-OV-3.

As for `CN(C)CCNc1ccc2nnn3c4ccccc4c(=O)c1c23`, the GI50 was 4.56 µM (inactive) in the assay with SNB-19; 5.51 µM (inactive) in the assay with RXF 393; 6.34 µM (inactive) with SNB-78; 3.25 µM with HCT-15; 4.75 µM (inactive) in the assay on SF-539; 1.27 µM (inactive) in the assay with MOLT-4. In addition, the GI50 was 2.5 µM (inactive) with CAKI-1; 2.59 µM (inactive) in the assay with A498; 4.32 µM (inactive) with MCF7; 2.48 µM (inactive) with HOP-92; 3.91 µM (inactive) with NCI-H23; 2.4 µM (inactive) in the assay on NCI/ADR-RES. Further, the GI50 was 2.55 µM (inactive) in the assay on SNB-75; 2.26 µM (inactive) with A549; 3.01 µM (inactive) with Malme-3M; 4.99 µM (inactive) in the assay with SK-MEL-28; 2.15 µM (inactive) with SK-MEL-5; 3.7 µM (inactive) in the assay on SK-MEL-2. The figures for the GI50 in the assay on K562 and in the assay on SK-OV-3 were 2.86 µM (inactive) and 7.87 µM (inactive), respectively.
